Laboratory results published in patent US7662826B2, “Pyrazolo [1,5-a] pyrimidine derivative and nad (p) h oxidase inhibitor containing the same” (Shionogi & Co., Ltd., priority 2002, dated 2010).

Row | melting point | Compound
1 | 196 to 197 °C | O=C(NCc1ccccc1N1CCNCC1)Nc1cnc2c(-c3cccc(Cl)c3)cnn2c1 [Compound B40]
2 | 269 to 271 °C | O=C(Nc1cnc2c(-c3cccc(Cl)c3)cnn2c1)c1ccccc1N1CCNCC1 [Compound B165]
3 | 125 to 127 °C | O=C(Nc1ccccc1N1CC[C@@H](NCCO)C1)c1ccn2ncc(-c3cccc(Cl)c3)c2n1 [Compound B170]
4 | 124 to 125 °C | O=C(Nc1ccccc1N1CC[C@H](NCCO)C1)c1ccn2ncc(-c3cccc(Cl)c3)c2n1 [Compound B171]
5 | 160 to 162 °C | NCCN[C@H]1CCN(c2ccccc2NC(=O)c2ccn3ncc(-c4cccc(Cl)c4)c3n2)C1 [Compound B173]
6 | 168 to 170 °C | NC[C@H]1CCCN1c1ccccc1NC(=O)c1ccn2ncc(-c3cccc(Cl)c3)c2n1 [Compound B196]
7 | 118 to 121 °C | O=C(Nc1ccccc1N1CCC[C@@H]1CNCCO)c1ccn2ncc(-c3cccc(Cl)c3)c2n1 [Compound B198]
8 | 97 to 98 °C | CNC[C@H]1CCCN1c1ccccc1NC(=O)c1ccn2ncc(-c3cccc(Cl)c3)c2n1 [Compound B215]
9 | 183 to 184 °C | O=C(Nc1cnc2c(-c3ccc(Cl)cc3)cnn2c1)Nc1ccccc1N1CCNCC1 [Compound B218]
10 | 120 to 140 °C | O=C(Nc1cnc2c(-c3cccc(Cl)c3)cnn2c1)Nc1ccccc1N1CCNCC1 [Compound B249]
11 | 185 to 187 °C | O=C(NCc1ccccc1N1CCNCC1)Nc1cnc2c(-c3ccc(Cl)cc3)cnn2c1 [Compound B263]
12 | 236 to 238 °C | O=C(Nc1cnc2c(-c3ccc(Cl)cc3)cnn2c1)c1ccccc1N1CCNCC1 [Compound B277]
13 | 267 to 269 °C (dec.) | O=C(Nc1ccc(N2CCNCC2)cc1)c1cnc2c(-c3ccc(Cl)cc3)cnn2c1 [Compound B280]
14 | 100 to 102 °C (dec.) | COc1ccc(NC(=O)c2ccn3ncc(-c4cccc(Cl)c4)c3n2)cc1N1CCNCC1 [Compound B314]
15 | 159 to 160 °C | NCC1CCCCN1c1ccccc1NC(=O)c1ccn2ncc(-c3cccc(Cl)c3)c2n1 (stereo not shown) [Compound B316]
16 | 210 to 212 °C | COc1ccc(NC(=O)c2ccn3ncc(-c4ccc(Cl)cc4)c3n2)cc1N1CCNCC1 [Compound B317]

The next lines start with the compound.

Row | Compound | melting point
17 | O=C1CCN(c2ccccc2NC(=O)c2cnc3c(-c4cccc(Cl)c4)cnn3c2)CC1 [Compound B1] | 212 °C
18 | CNC1CCN(c2ccccc2NC(=O)c2cnc3c(-c4cccc(Cl)c4)cnn3c2)CC1 [Compound B3] | 215 to 217 °C
19 | CCNC1CCN(c2ccccc2NC(=O)c2cnc3c(-c4cccc(Cl)c4)cnn3c2)CC1 [Compound B5] | 193 to 195 °C
20 | CCCNC1CCN(c2ccccc2NC(=O)c2cnc3c(-c4cccc(Cl)c4)cnn3c2)CC1 [Compound B6] | 187 to 189 °C
21 | CCCCNC1CCN(c2ccccc2NC(=O)c2cnc3c(-c4cccc(Cl)c4)cnn3c2)CC1 [Compound B8] | 191 to 192 °C
22 | CC(C)NC1CCN(c2ccccc2NC(=O)c2cnc3c(-c4cccc(Cl)c4)cnn3c2)CC1 [Compound B9] | 206 to 208 °C
23 | CCC(C)NC1CCN(c2ccccc2NC(=O)c2cnc3c(-c4cccc(Cl)c4)cnn3c2)CC1 (stereo not shown) [Compound B11] | 202 to 204 °C
24 | CNC1CCN(c2ccccc2NC(=O)c2cnc3c(-c4ccc(Cl)cc4)cnn3c2)CC1 [Compound B16] | 226 to 228 °C
25 | CCNC1CCN(c2ccccc2NC(=O)c2cnc3c(-c4ccc(Cl)cc4)cnn3c2)CC1 [Compound B17] | 234 to 236 °C
26 | CC(C)NC1CCN(c2ccccc2NC(=O)c2cnc3c(-c4ccc(Cl)cc4)cnn3c2)CC1 [Compound B18] | 246 to 247 °C
27 | CCCNC1CCN(c2ccccc2NC(=O)c2cnc3c(-c4ccc(Cl)cc4)cnn3c2)CC1 [Compound B19] | 235 to 237 °C
28 | C=CCNC1CCN(c2ccccc2NC(=O)c2cnc3c(-c4ccc(Cl)cc4)cnn3c2)CC1 [Compound B20] | 229 to 230 °C
29 | CCCCNC1CCN(c2ccccc2NC(=O)c2cnc3c(-c4ccc(Cl)cc4)cnn3c2)CC1 [Compound B23] | 222 to 224 °C
30 | O=C(Nc1ccccc1N1CCC(O)CC1)c1cnc2c(-c3ccc(Cl)cc3)cnn2c1 [Compound B24] | 256 to 261 °C
31 | O=C(Nc1ccccc1N1CCC[C@H]1CNCCO)c1cnc2c(-c3ccc(Cl)cc3)cnn2c1 [Compound B25] | 134 to 136 °C
32 | N[C@@H]1CCN(c2ccccc2NC(=O)c2cnc3c(-c4ccc(Cl)cc4)cnn3c2)C1 [Compound B28] | 184 to 186 °C
33 | NC[C@@H]1CCCN1c1ccccc1NC(=O)c1cnc2c(-c3ccc(Cl)cc3)cnn2c1 [Compound B30] | 203 to 204 °C
34 | CNC1CCN(c2ccccc2NC(=O)Nc2cnc3c(-c4ccc(Cl)cc4)cnn3c2)CC1 [Compound B36] | 137 to 140 °C

Row | Compound | melting point
35 | CCNC1CCN(c2ccccc2NC(=O)Nc2cnc3c(-c4ccc(Cl)cc4)cnn3c2)CC1 [Compound B38] | 155 to 157 °C
36 | CCCNC1CCN(c2ccccc2NC(=O)Nc2cnc3c(-c4ccc(Cl)cc4)cnn3c2)CC1 [Compound B41] | 151 to 153 °C
37 | C=CCNC1CCN(c2ccccc2NC(=O)Nc2cnc3c(-c4ccc(Cl)cc4)cnn3c2)CC1 [Compound B43] | 152 to 153 °C
38 | CNC1CCN(c2ccccc2NC(=O)Nc2cnc3c(-c4cccc(Cl)c4)cnn3c2)CC1 [Compound B55] | 117 to 128 °C (dec.)
39 | CCNC1CCN(c2ccccc2NC(=O)Nc2cnc3c(-c4cccc(Cl)c4)cnn3c2)CC1 [Compound B58] | 157 to 159 °C (dec.)
40 | C=CCNC1CCN(c2ccccc2NC(=O)Nc2cnc3c(-c4cccc(Cl)c4)cnn3c2)CC1 [Compound B59] | 150 to 154 °C (dec.)
41 | NCCN[C@@H]1CCN(c2ccccc2NC(=O)c2ccn3ncc(-c4cccc(Cl)c4)c3n2)C1.O=C(O)/C=C/C(=O)O [Compound B172] | 151 to 152 °C
42 | CCCNC1CCN(c2ccccc2NC(=O)Nc2cnc3c(-c4cccc(Cl)c4)cnn3c2)CC1 [Compound B199] | 152 to 155 °C
43 | CC(C)NC1CCN(c2ccccc2NC(=O)Nc2cnc3c(-c4ccc(Cl)cc4)cnn3c2)CC1 [Compound B203] | > 300 °C
44 | CCC(C)NC1CCN(c2ccccc2NC(=O)c2cnc3c(-c4ccc(Cl)cc4)cnn3c2)CC1 (stereo not shown) [Compound B243] | 229 to 231 °C
45 | O=C(Nc1ccccc1N1CC[C@@H](NCCO)C1)c1cnc2c(-c3ccc(Cl)cc3)cnn2c1 [Compound B245] | 164 to 165 °C
46 | Clc1cccc(-c2cnn3ccc(/C4=N/c5ccccc5N5CCCCC5CN4)nc23)c1 (stereo not shown) [Compound B292] | 190 to 191 °C
47 | CCCCNC1CCN(c2ccccc2NC(=O)Nc2cnc3c(-c4ccc(Cl)cc4)cnn3c2)CC1 [Compound B293] | 138 to 143 °C
48 | NCCC1CCCCN1c1ccccc1NC(=O)c1ccn2ncc(-c3cccc(Cl)c3)c2n1.O=C(O)/C=C/C(=O)O (stereo not shown) [Compound B313] | 211 to 212 °C
49 | NC[C@H]1CCCN1c1ccccc1NC(=O)c1ccn2ncc(-c3ccc(Cl)cc3)c2n1 [Compound B318] | 186 to 188 °C
50 | CCCNC1CCN(c2ccccc2NC(=O)C2=CNc3c(-c4ccc(Cl)cc4)cnn3C2)CC1 [Compound B319] | 216 to 217 °C
51 | CCC(C)NC1CCN(c2ccccc2NC(=O)Nc2cnc3c(-c4ccc(Cl)cc4)cnn3c2)CC1 (stereo not shown) [Compound B336] | > 300 °C
52 | O=C(NCc1ccccc1N1CCOCC1)c1ccn2nc(-c3ccccc3)cc2n1 [Example 12, N-(2-morpholinophenyl)methyl 2-phenyl-pyrazolo-[1,5-a]-pyrimidine-5-amide] | 190 to 192 °C
